One may read the IC50 as the concentration that gives 50% inhibition.

The experiment deals with T1, hTSHR (Homo sapiens, UniProt P16473).
T1 construct: expressed in transfected cells
As to the kind of experiment: hTSHR TR-FRET cAMP Assay (inhibition of M22-stimulated cAMP production). Type of experiment: cell-based. To be noted: Expi293F Inducible cells stably expressing hTSHR; cAMP HTRF; stimulated with EC80 of anti-TSHR antibody M22; 15 min compound preincubation, 30 min at 37° C.; read-out: Activity (IC50 bins). A digest of the protocol: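 Readout was a cAMP HTRF ratio of 655/620 nm after lysis, scaled between the EC80 M22 signal (0% inhibition) and no-agonist vehicle (100%). Frozen induced Expi293F-hTSHR cells saw test compounds (0.5% DMSO) for 15 min at 37 °C before 30 min of M22 stimulation at EC80.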
In general terms: In TR-FRET formats the signal depends on donor and acceptor labels being close together.

T1 sequence (P16473 21-764): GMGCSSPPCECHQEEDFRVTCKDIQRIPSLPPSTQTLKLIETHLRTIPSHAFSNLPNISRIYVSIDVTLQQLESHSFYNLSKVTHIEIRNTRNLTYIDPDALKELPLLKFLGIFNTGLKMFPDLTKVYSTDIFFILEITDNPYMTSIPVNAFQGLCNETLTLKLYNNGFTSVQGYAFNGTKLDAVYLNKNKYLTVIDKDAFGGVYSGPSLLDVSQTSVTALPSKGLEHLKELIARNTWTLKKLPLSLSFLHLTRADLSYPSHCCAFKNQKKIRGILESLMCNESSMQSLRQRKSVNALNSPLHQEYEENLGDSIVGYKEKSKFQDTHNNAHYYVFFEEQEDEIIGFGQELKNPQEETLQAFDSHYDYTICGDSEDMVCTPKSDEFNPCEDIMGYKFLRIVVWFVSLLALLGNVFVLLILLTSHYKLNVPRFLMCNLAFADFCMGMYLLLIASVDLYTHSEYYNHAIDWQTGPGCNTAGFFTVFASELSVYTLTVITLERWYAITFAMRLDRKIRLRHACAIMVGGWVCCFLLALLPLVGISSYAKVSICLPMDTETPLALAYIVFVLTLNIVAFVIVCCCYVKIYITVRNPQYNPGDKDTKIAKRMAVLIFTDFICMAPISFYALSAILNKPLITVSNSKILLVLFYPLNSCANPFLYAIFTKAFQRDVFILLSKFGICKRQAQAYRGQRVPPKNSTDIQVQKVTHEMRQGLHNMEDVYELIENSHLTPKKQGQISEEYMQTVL

Regarding `COCC1(NC(=O)Nc2ccc3c(c2)O[C@H](C)C(=O)N3Cc2cccc(C(F)(F)F)n2)CCC1` [Example 233, (R)-1-(1-(methoxymethyl)cyclobutyl)-3-(2-methyl-3-oxo-4-((6-(trifluoromethyl)pyridin-2-yl)methyl)-3,4-dihydro-2H-benzo[b][1,4]oxazin-7-yl)urea], the half-maximal inhibitory concentration (IC50) was 100 to 1000 nM. The same measure for `C[C@H]1Oc2cc(NC(=O)NC3(C(F)(F)F)CCCC3)ccc2N(Cc2cccc(C(F)(F)F)n2)C1=O` [Example 234, (R)-1-(2-methyl-3-oxo-4-((6-(trifluoromethyl)pyridin-2-yl)methyl)-3,4-dihydro-2H-benzo[b][1,4]oxazin-7-yl)-3-(1-(trifluoromethyl)cyclopentyl)urea]: less than 100 nM. The same measure for `C[C@H]1Oc2cc(NC(=O)NC3CCC(F)(F)CC3)ccc2N(Cc2cccc(C(F)(F)F)n2)C1=O` [Example 235, (R)-1-(4,4-difluorocyclohexyl)-3-(2-methyl-3-oxo-4-((6-(trifluoromethyl)pyridin-2-yl)methyl)-3,4-dihydro-2H-benzo[b][1,4]oxazin-7-yl)urea]: 100 to 1000 nM; for `C[C@H]1Oc2cc(NC(=O)NC(C)(C)CCO)ccc2N(Cc2ccccc2)C1=O` [Example 236, (R)-1-(4-benzyl-2-methyl-3-oxo-3,4-dihydro-2H-benzo[b][1,4]oxazin-7-yl)-3-(4-hydroxy-2-methylbutan-2-yl)urea]: 100 to 1000 nM; for `C[C@H]1Oc2cc(NC(=O)NC3CCCC3)ccc2N(Cc2ccccc2)C1=O` [Example 237, (R)-1-(4-benzyl-2-methyl-3-oxo-3,4-dihydro-2H-benzo[b][1,4]oxazin-7-yl)-3-cyclopentylurea]: less than 100 nM. Take `C[C@H]1Oc2cc(NC(=O)NC(C)(C)[C@H]3C[C@@H](O)C3)ccc2N(Cc2ccccc2)C1=O` [Example 238]: the IC50 was more than 1000 nM. As for `CC(C)(O)CNC(=O)Nc1ccc2c(c1)ncc(=O)n2Cc1cccc(OC(F)(F)F)c1` [Example 239, 1-(2-hydroxy-2-methylpropyl)-3-(2-oxo-1-(3-(trifluoromethoxy)benzyl)-1,2-dihydroquinoxalin-6-yl)urea], the figure is more than 1000 nM; as for `CC(C)(C)CNC(=O)Nc1ccc2c(c1)ncc(=O)n2Cc1cccc(OC(F)(F)F)c1` [Example 240, 1-neopentyl-3-(2-oxo-1-(3-(trifluoromethoxy)benzyl)-1,2-dihydroquinoxalin-6-yl)urea], 100 to 1000 nM.

Take `CC(C)(C#N)CNC(=O)Nc1ccc2c(c1)ncc(=O)n2Cc1cccc(OC(F)(F)F)c1` [Example 241, 1-(2-cyano-2-methylpropyl)-3-(2-oxo-1-(3-(trifluoromethoxy)benzyl)-1,2-dihydroquinoxalin-6-yl)urea]: the concentration for half-maximal inhibition (IC50) was more than 1000 nM. For `CC(C)(CO)CNC(=O)Nc1ccc2c(c1)ncc(=O)n2Cc1cccc(OC(F)(F)F)c1` [Example 242, 1-(3-hydroxy-2,2-dimethylpropyl)-3-(2-oxo-1-(3-(trifluoromethoxy)benzyl)-1,2-dihydroquinoxalin-6-yl)urea], the IC50 was more than 1000 nM. The same measure for `CC(C)(CC(F)(F)F)NC(=O)Nc1ccc2c(c1)ncc(=O)n2Cc1cccc(OC(F)(F)F)c1` [Example 243, 1-(2-oxo-1-(3-(trifluoromethoxy)enzyl)-1,2-dihydroquinoxalin-6-yl)-3-(4,4,4-trifluoro-2-methylbutan-2-yl)urea]: 100 to 1000 nM. The same measure for `CC(C)(CNC(=O)Nc1ccc2c(c1)ncc(=O)n2Cc1cccc(OC(F)(F)F)c1)C(F)(F)F` [Example 244, 1-(2-oxo-1-(3-(trifluoromethoxy)benzyl)-1,2-dihydroquinoxalin-6-yl)-3-(3,3,3-trifluoro-2,2-dimethylpropyl) urea]: 100 to 1000 nM; for `CC(C)(CC#N)NC(=O)Nc1ccc2c(c1)ncc(=O)n2Cc1cccc(OC(F)(F)F)c1` [Example 245, 1-(1-cyano-2-methylpropan-2-yl)-3-(2-oxo-1-(3-(trifluoromethoxy)enzyl)-1,2-dihydroquinoxalin-6-yl)urea]: more than 1000 nM; for `CC(c1cccc(C2CCC2)c1)n1c(=O)cnc2cc(NC(=O)NC(C)(C)C)ccc21` (stereo not drawn) [Example 246, 1-(tert-butyl)-3-(1-(1-(3-cyclobutylphenyl)ethyl)-2-oxo-1,2-dihydroquinoxalin-6-yl)urea]: 100 to 1000 nM.

On to `CC(c1cc(F)cc(OC(F)(F)F)c1)n1c(=O)cnc2cc(NC(=O)NC(C)(C)C)ccc21` (stereo not drawn) [Example 247, 1-(tert-butyl)-3-(1-(1-(3-fluoro-5-(tri-fluoromethoxy)phenyl)ethyl)-2-oxo-1,2-dihydro-quinoxalin-6-yl)urea], for which the IC50 was 100 to 1000 nM. In the case of `CC(c1cccc(CCC2COC2)c1)n1c(=O)cnc2cc(NC(=O)NC(C)(C)C)ccc21` (stereo not drawn) [Example 248, 1-(tert-butyl)-3-(1-(1-(3-(2-(oxetan-3-yl)ethyl)phenyl)ethyl)-2-oxo-1,2-dihydro-quinoxalin-6-yl)urea], the IC50 was more than 1000 nM. As for `CC(c1ccc2cnn(CCC(F)(F)F)c2c1)n1c(=O)cnc2cc(NC(=O)NC(C)(C)C)ccc21` (stereo not drawn) [Example 249, 1-(tert-butyl)-3-(2-oxo-1-(1-(1-(3,3,3-trifluoropropyl)-1H-indazol-6-yl)ethyl)-1,2-dihydro-quinoxalin-6-yl)urea], the figure is more than 1000 nM; as for `CC(c1cccc(CCOCc2ccncc2)c1)n1c(=O)cnc2cc(NC(=O)NC(C)(C)C)ccc21` (stereo not drawn) [Example 250, 1-(tert-butyl)-3-(2-oxo-1-(1-(3-(2-(pyridin-4-ylmethoxy)ethyl)phenyl)ethyl)-1,2-dihydro-quinoxalin-6-yl)urea], more than 1000 nM; as for `CC(c1cccc2c1cnn2CCC(F)(F)F)n1c(=O)cnc2cc(NC(=O)NC(C)(C)C)ccc21` (stereo not drawn) [Example 251, 1-(tert-butyl)-3-(2-oxo-1-(1-(1-(3,3,3-trifluoropropyl)-1H-indazol-4-yl)ethyl)-1,2-dihydro-quinoxalin-6-yl)urea], more than 1000 nM.

On to `CC(c1cccc2ncccc12)n1c(=O)cnc2cc(NC(=O)NC(C)(C)C)ccc21` (stereo not drawn) [Example 252, 1-(tert-butyl)-3-(2-oxo-1-(1-(quinolin-5-yl)ethyl)-1,2-dihydro-quinoxalin-6-yl)urea], for which the 50% inhibitory concentration (IC50) was more than 1000 nM.

For `CC(c1cc(C(F)(F)F)ccn1)n1c(=O)cnc2cc(NC(=O)NC(C)(C)C)ccc21` (stereo not drawn) [Example 253, 1-(tert-butyl)-3-(2-oxo-1-(1-(4-(trifluoromethyl)pyridin-2-yl)ethyl)-1,2-dihydro-quinoxalin-6-yl)urea], the IC50 is more than 1000 nM. As for `CC(c1nc(Cl)ccc1Cl)n1c(=O)cnc2cc(NC(=O)NC(C)(C)C)ccc21` (stereo not drawn) [Example 254, 1-(tert-butyl)-3-(1-(1-(3,6-dichloropyridin-2-yl)ethyl)-2-oxo-1,2-dihydro-quinoxalin-6-yl)urea], the figure is 100 to 1000 nM. The same measure for `C[C@H]1Oc2cc(NC(=O)NC3(C)CCC3)ccc2N([C@@H](C)c2ccccc2)C1=O` [Example 255, 1-((R)-2-methyl-3-oxo-4-((S)-1-phenylethyl)-3,4-dihydro-2H-benzo[b][1,4]oxazin-7-yl)-3-(1-methylcyclobutyl)urea]: less than 100 nM; for `C[C@H]1Oc2cc(NC(=O)NC3(C)CCCC3)ccc2N([C@@H](C)c2ccccc2)C1=O` [Example 256, 1-((R)-2-methyl-3-oxo-4-((S)-1-phenyl-ethyl)-3,4-dihydro-2H-benzo[b][1,4]oxazin-7-yl)-3-(1-methylcyclopentyl)-urea]: less than 100 nM.

These data come from patent US20260365628A1, “SUBSTITUTED 3,4-DIHYDROQUINOLINONE INHIBITORS OF TSHR” (Septerna, Inc., priority 2022, published 2026).
